Values quoted from earlier work as cited in US20240000730A1, “ANTIHISTAMINE SEMI-SOLID CHEWABLE GEL COMPOSITIONS AND METHODS OF MAKING AND USING THEREOF” (Seattle Gummy Company, priority 2021, published 2024).

Experiments:
[1] = ITC measurements
[2] = ITC measurements; remark: listed apart in the source
[3] = ITC measurements; remark: listed apart in the source

association constant K(a) of the cetirizine-β-cyclodextrin complex [1]: 5641 ± 358 M⁻¹
association constant of the cetirizine-γ-cyclodextrin complex [2]: 1200±50 (−1)
association constant K(a) of the cetirizine-α-cyclodextrin complex [3]: 1434 ± 60 M⁻¹
Structure (SMILES): O=C(O)COCCN1CCN(C(c2ccccc2)c2ccc(Cl)cc2)CC1 (stereo not drawn) [Cetirizine, cetirizine]
